From the SangsterLogP compilation

Compound	logP
CCOC(=O)C(C)N(C(=O)CSP(=S)(OC)OC)c1ccc(Cl)cc1 (stereo not given)	2.75
O=C(CCl)N(Cc1ccccc1)c1ccc(Cl)cc1	4.09
C=CCN(C(=O)CSP(=S)(OC)OC)c1ccc(C)cc1	2.92
CCOP(=S)(Oc1ccc(Cl)cc1Cl)SCC(=O)N(CC)c1ccc(C)cc1 (stereo not given)	2.82
CCN(C(=O)CCl)c1ccccc1C	2.82
CCOC(=O)CN(C(=O)CCl)c1cccc(Cl)c1	2.42
COP(=S)(OC)SCC(=O)N(Cc1ccccc1)c1ccccc1	3.13
CCCN(C(=O)CCl)c1ccc(Cl)cc1	3.62
C=CCN(C(=O)CCl)c1cccc(Cl)c1	3.38
C=CCN(C(=O)CCl)c1ccc(Cl)cc1	3.19
CCOC(=O)CN(C(=O)CSP(=S)(OC)OC)c1ccc(Cl)cc1	2.15
CCOC(=O)CN(C(=O)CCl)c1ccc(Cl)cc1	2.15
CCOC(=O)[C@H](C)N(C(=O)CCl)c1ccccc1	1.79
COP(=S)(OC)SCC(=O)N(c1ccccc1)C(C)C	2.5
C=CCN(C(=O)CCl)c1ccc(C)cc1	2.92
CCOC(=O)[C@H](C)N(C(=O)CCl)c1ccc(Cl)cc1	2.75
C=CCN(C(=O)CSP(=S)(OC)OC)c1ccc(Cl)cc1	3.19
CCOC(=O)C(C)N(C(=O)CSP(=S)(OC)OC)c1cccc(Cl)c1 (stereo not given)	3.68
CCN(C(=O)CSP(=S)(OC)OC)c1ccccc1C	2.82
C=CCN(C(=O)CSP(=S)(OC)OC)c1ccccc1C	2.93
CCN(C(=O)CSP(=S)(OC)OC)c1ccc(C)cc1	2.81
CCOC(=O)C(C)N(C(=O)CSP(=S)(OC)OC)c1ccccc1 (stereo not given)	1.79
COP(=S)(OC)SCC(=O)N(Cc1ccccc1)c1ccc(Cl)cc1	4.09
O=C(CCl)N(Cc1ccccc1)c1cccc(Cl)c1	4.28
O=C(CCl)N(Cc1ccccc1)c1ccccc1	3.13
CCN(C(=O)CCl)c1ccccc1	2.26
CCOC(=O)CN(C(=O)CSP(=S)(OC)OC)c1ccccc1	1.19
CCOP(=S)(Oc1ccc(Cl)cc1Cl)SCC(=O)N(CC)c1ccccc1C (stereo not given)	2.82
CCOC(=O)CN(C(=O)CSP(=S)(OC)OC)c1ccccc1Cl	2.42
CCN(C(=O)CSP(=S)(OC)OC)c1ccccc1	2.26
